Laboratory results taken from patent US6894060B2, “Method for the treatment of dermal lesions caused by envenomation” (3M Innovative Properties Company, priority 2000, dated 2005).

Tested on: Loxosceles reclusa envenomation (spider bite dermal lesions)
Test: Treatment of Loxosceles reclusa envenomation with imiquimod 5% cream (consecutive clinical cases)
Type: in vivo, human
Procedure: A consecutive series of 7 bites on 5 patients were treated with imiquimod 5% cream (available under the tradename ALDARA from 3M Pharmaceuticals, St. Paul, Minn., USA) applied by the clinic staff, three times per week (typically Monday, Wednesday and Friday) for two weeks. Sufficient cream was used to cover the area of erythema, rubbing the cream gently until it “vanished” as per labeled instructions. In addition, a single intramuscular dose of ceftriaxone 1 gm was given together with oral dicloxicillin, 500 mg bid for 10 days. Patients were re-examined by a physician at 7, 14 and 28 days following initiation of therapy.

## CC(C)Cn1cnc2c(N)nc3ccccc3c21 [imiquimod, 1-(2-methylpropyl)-1H-imidazo[4,5-c]quinolin-4-amine]
7 bites in 5 patients
  improvement in induration and erythema by day 7: Marked improvement
  resolution of induration and erythema by day 14: full resolution in all but one case
7 consecutive cases, versus historical rate 7/12 (0.583): binomial p=0.002, Chi-square p=0.01
  cases with necrosis: 0 out of 7
Day 28 follow-up visit
  residual scarring or pigmentation changes: No residual scarring or pigmentation changes
Imiquimod treated cases, 7 bites in 5 patients
  development of necrosis: Necrosis did not develop in any
Patient five, right calf bite
  erythema, 14 Day Follow-up: present
  ulcer status, 14 Day Follow-up: Ulcer healed
Patient five, right calf bite, 1.2 cm erythema at presentation
  erythema, 7 Day Follow-up: No erythema
Patient five, right calf bite, 1.8 cm central core at presentation
  ulcer, 7 Day Follow-up: 0.75 cm ulcer
Patient five, right calf bite, erythema present at day 14
  erythema resolved by (day): d28)
Patient five, right calf bite, painful at presentation
  pain, 7 Day Follow-up: Decreased pain
Patient five, erythema cleared at the day 7 visit
  reappearance of erythema, presumed to be secondary to imiquimod: developed again by day 14
Patient four, right calf bite
  lesion status, 14 Day Follow-up: Completely
Patient four, right calf bite, 1.5 cm induration at presentation, cream three times per week for two weeks
  induration, 7 Day Follow-up: 0.5 cm
Patient four, right calf bite, 9 cm erythema at presentation
  erythema, 7 Day Follow-up: No erythema
Patient four, right calf bite, painful at presentation
  pain or tenderness, 7 Day Follow-up: No pain or
Patient one, right calf bite
  lesion status, 14 Day Follow-up: Completely
Patient one, right calf bite, 1.3 cm induration at presentation
  firm induration, 7 Day Follow-up: 1.25 cm firm
Patient one, right calf bite, 10 cm erythema at presentation
  induration (second entry of the cell), 7 Day Follow-up: 5 cm
Patient one, right calf bite, very painful at presentation
  tenderness, 7 Day Follow-up: Non-tender
Patient three, first bite
  time from bite to resolution: 9 days
Patient three, left buttock bite, 1.0 cm induration, erythema, painful at presentation
  lesion status, 7 Day Follow-up: Completely
Patient three, right thigh bite
  lesion status, 14 Day Follow-up: Completely
Patient three, right thigh bite, 1.5 cm induration at presentation
  central core, 7 Day Follow-up: 2.5 cm
Patient three, right thigh bite, 7.5 × 11 cm erythema at presentation
  erythema, 7 Day Follow-up: No erythema
Patient three, right thigh bite, tender at presentation
  pain or tenderness, 7 Day Follow-up: No pain or
Patient two, left thigh bite
  lesion status, 14 Day Follow-up: Completely
Patient two, left thigh bite, 1.0 cm central core at presentation
  central core, 7 Day Follow-up: 0.5 cm
Patient two, left thigh bite, 6.0 cm erythema at presentation
  erythema, 7 Day Follow-up: 2.0 cm
Patient two, right breast bite
  lesion status, 14 Day Follow-up: Completely
Patient two, right breast bite, 1.2 cm central core at presentation
  central core, 7 Day Follow-up: 1.0 cm
Patient two, right breast bite, 3.0 cm erythema at presentation
  erythema, 7 Day Follow-up: No erythema
Reported by all patients, 7 bites in 5 patients
  time to pain relief following the first dose: 1 to 2 days
